Test results reported in patent publication US7709482B2, “Polycyclic heteroaryl substituted triazoles useful as Axl inhibitors” (Rigel Pharmaceuticals, Inc., priority 2006, dated 2010).

Target: T1, Axl (Homo sapiens, UniProt P30530)
T1 construct: endogenous in cells; host or cells: HeLa cells
T1 sequence (P30530 26-894): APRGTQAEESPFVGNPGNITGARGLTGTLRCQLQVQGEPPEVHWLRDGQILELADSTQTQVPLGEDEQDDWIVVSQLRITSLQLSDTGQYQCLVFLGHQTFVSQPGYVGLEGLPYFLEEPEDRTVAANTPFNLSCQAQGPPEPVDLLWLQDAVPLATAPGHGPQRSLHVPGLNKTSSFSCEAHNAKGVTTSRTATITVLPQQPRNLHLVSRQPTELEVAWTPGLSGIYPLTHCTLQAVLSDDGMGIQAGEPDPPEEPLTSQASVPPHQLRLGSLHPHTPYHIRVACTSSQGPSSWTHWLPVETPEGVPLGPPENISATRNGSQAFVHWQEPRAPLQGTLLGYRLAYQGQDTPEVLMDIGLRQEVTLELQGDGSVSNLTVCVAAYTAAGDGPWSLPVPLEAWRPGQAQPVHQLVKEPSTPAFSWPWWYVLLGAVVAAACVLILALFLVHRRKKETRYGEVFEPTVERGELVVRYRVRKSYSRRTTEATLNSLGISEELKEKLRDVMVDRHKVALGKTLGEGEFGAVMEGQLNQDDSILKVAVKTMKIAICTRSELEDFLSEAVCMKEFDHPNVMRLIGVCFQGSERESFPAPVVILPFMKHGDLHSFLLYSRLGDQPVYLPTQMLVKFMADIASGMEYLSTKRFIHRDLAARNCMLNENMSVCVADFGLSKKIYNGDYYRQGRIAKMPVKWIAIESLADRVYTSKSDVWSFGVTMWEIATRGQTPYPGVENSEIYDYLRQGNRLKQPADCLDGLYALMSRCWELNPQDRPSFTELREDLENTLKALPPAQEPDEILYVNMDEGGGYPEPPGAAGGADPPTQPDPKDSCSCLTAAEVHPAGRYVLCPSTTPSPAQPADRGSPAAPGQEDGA
Test: Phospho-Akt In-Cell Western Assay (inhibition of Axl activity after Axl-antibody cross-linking)
Assay type: cell-based
Conditions: Hela cells, phospho-Akt chemiluminescence normalized to relative cell number; compounds of formula (Ia), Table 1; read-out: IC50
Procedure, shortened: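 HeLa cells on poly-L-lysine, starved 24 h in 0.5% FCS DMEM with Axl/Fc 500 ng/mL, pre-treated with compound 1 h at 37 °C, then stimulated 5 min by anti-Axl/anti-mouse antibody cross-linking. Fixed cells probed for phospho-Akt with HRP secondary and chemiluminescent detection.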

Which IC50 does the source give for `Nc1nc(Nc2ccc(N3CCC(N)CC3)c(F)c2)nn1-c1cc2c(nn1)-c1ccccc1CCC2` [Compound 87, 1-(6,7-dihydro-5H-benzo[6,7]cyclohepta[1,2-c]pyridazin-3-yl)-N^3-(3-fluoro-4-(4-aminopiperidin-1-yl)phenyl)-1H-1,2,4-triazole-3,5-diamine] here?
The IC50 was under 1000 nM.

How did the IC50 turn out when `Nc1nc(Nc2ccc(N3CCC(N4CC5CN(C6CCCCC6)CC5C4)CC3)c(F)c2)nn1-c1cc2c(nn1)-c1ccccc1CCC2` (stereo not drawn) [Compound 88, 1-(6,7-dihydro-5H-benzo[6,7]cyclohepta[1,2-c]pyridazin-3-yl)-N^3-(3-fluoro-4-(4-(5-cyclohexyl-octahydropyrrolo[3,4-c]pyrrolyl)piperidin-1-yl)phenyl)-1H-1,2,4-triazole-3,5-diamine] was run?
Its IC50 is under 1000 nM.

For `Nc1nc(Nc2ccc3c(c2)CCCCO3)nn1-c1cc2c(nn1)-c1ccccc1CCC2` [Compound 89, 1-(6,7-dihydro-5H-benzo[6,7]cyclohepta[1,2-c]pyridazin-3-yl)-N^3-(2,3,4,5-tetrahydrobenzo[b]oxepin-7-yl)-1H-1,2,4-triazole-3,5-diamine], which IC50 is on record?
The IC50 was 1000 to 10000 nM.

Which IC50 does the source give for `CCCCN(Cc1ccc(Nc2nc(N)n(-c3cc4c(nn3)-c3ccccc3CCC4)n2)cc1)C(C)=O` [Compound 90, 1-(6,7-dihydro-5H-benzo[6,7]cyclohepta[1,2-c]pyridazin-3-yl)-N^3-(4-((N-butyl-N-acetoamino)methyl)phenyl)-1H-1,2,4-triazole-3,5-diamine] here?
Its IC50 is 1000 to 10000 nM.

With `Nc1nc(Nc2ccc(CC3C(=O)Nc4ccc(F)cc43)cc2)nn1-c1cc2c(nn1)-c1ccccc1CCC2` (stereo not drawn) [Compound 91, 1-(6,7-dihydro-5H-benzo[6,7]cyclohepta[1,2-c]pyridazin-3-yl)-N^3-(4-((5-fluoroindolin-2-on-3-yl)methyl)phenyl)-1H-1,2,4-triazole-3,5-diamine] as the compound, how does the IC50 read?
Its IC50 is over 20000 nM.

With `Nc1nc(Nc2ccc(I)nc2)nn1-c1cc2c(nn1)-c1ccccc1CCC2` [Compound 92, 1-(6,7-dihydro-5H-benzo[6,7]cyclohepta[1,2-c]pyridazin-3-yl)-N^3-(6-iodopyridin-3-yl)-1H-1,2,4-triazole-3,5-diamine] as the compound, how does the IC50 read?
The IC50 was over 20000 nM.

How did the IC50 turn out when `Nc1nc(Nc2cccnc2)nn1-c1cc2c(nn1)-c1ccccc1CCC2` [Compound 93, 1-(6,7-dihydro-5H-benzo[6,7]cyclohepta[1,2-c]pyridazin-3-yl)-N^3-(pyridin-3-yl)-1H-1,2,4-triazole-3,5-diamine] was run?
Its IC50 is over 20000 nM.

`Nc1ccc(-c2ccc(Nc3nc(N)n(-c4cc5c(nn4)-c4ccccc4CCC5)n3)cn2)cn1` [Compound 94, 1-(6,7-dihydro-5H-benzo[6,7]cyclohepta[1,2-c]pyridazin-3-yl)-N^3-(6-(6-aminopyridin-3-yl)pyridine-3-yl)-1H-1,2,4-triazole-3,5-diamine] was tested. Which IC50 did it give?
The IC50 was over 20000 nM.

`Nc1cccc(-c2ccc(Nc3nc(N)n(-c4cc5c(nn4)-c4ccccc4CCC5)n3)cn2)c1` [Compound 95, 1-(6,7-dihydro-5H-benzo[6,7]cyclohepta[1,2-c]pyridazin-3-yl)-N^3-(6-(3-aminophenyl)pyridine-3-yl)-1H-1,2,4-triazole-3,5-diamine] was tested. Which IC50 did it give?
The IC50 was over 20000 nM.

Which IC50 does the source give for `N#Cc1cccc(-c2ccc(Nc3nc(N)n(-c4cc5c(nn4)-c4ccccc4CCC5)n3)cn2)c1` [Compound 96, 1-(6,7-dihydro-5H-benzo[6,7]cyclohepta[1,2-c]pyridazin-3-yl)-N^3-(6-(3-cyanophenyl)pyridine-3-yl)-1H-1,2,4-triazole-3,5-diamine] here?
The IC50 was over 20000 nM.

For `Nc1nc(Nc2ccc(-c3ccc4c(c3)OCO4)nc2)nn1-c1cc2c(nn1)-c1ccccc1CCC2` [Compound 97, 1-(6,7-dihydro-5H-benzo[6,7]cyclohepta[1,2-c]pyridazin-3-yl)-N^3-(6-(benzo[d][1,3]dioxole-6-yl)pyridine-3-yl)-1H-1,2,4-triazole-3,5-diamine], which IC50 is on record?
The IC50 was over 20000 nM.

How did the IC50 turn out when `CS(=O)(=O)Nc1cccc(-c2ccc(Nc3nc(N)n(-c4cc5c(nn4)-c4ccccc4CCC5)n3)cn2)c1` [Compound 98, 1-(6,7-dihydro-5H-benzo[6,7]cyclohepta[1,2-c]pyridazin-3-yl)-N^3-(6-(3-methylsulfonamidylphenyl)-pyridine-3-yl)-1H-1,2,4-triazole-3,5-diamine] was run?
The IC50 was over 20000 nM.

With `CN1CCC(c2ccc(Nc3nc(N)n(-c4cc5c(nn4)-c4ccccc4CCC5)n3)cc2)CC1` [Compound 99, 1-(6,7-dihydro-5H-benzo[6,7]cyclohepta[1,2-c]pyridazin-3-yl)-N^3-(4-(methylpiperidin-4-yl)phenyl)-1H-1,2,4-triazole-3,5-diamine] as the compound, how does the IC50 read?
Its IC50 is under 1000 nM.

How did the IC50 turn out when `Nc1nc(Nc2ccc3c(c2)OCCCO3)nn1-c1cc2c(nn1)-c1ccccc1CCC2` [Compound 100, 1-(6,7-dihydro-5H-benzo[6,7]cyclohepta[1,2-c]pyridazin-3-yl)-N^3-(3,4-dihydro-2H-benzo[b][1,4]dioxepin-7-yl)-1H-1,2,4-triazole-3,5-diamine] was run?
Its IC50 is 1000 to 10000 nM.

For `Nc1nc(Nc2ccc(N3CCC(N4CCCC4)CC3)cc2)nn1-c1cc2c(nn1)-c1ccccc1CCC2` [Compound 101, 1-(6,7-dihydro-5H-benzo[6,7]cyclohepta[1,2-c]pyridazin-3-yl)-N^3-(4-(4-pyrrolidin-1-ylpiperidinyl)phenyl)-1H-1,2,4-triazole-3,5-diamine], which IC50 is on record?
Its IC50 is under 1000 nM.

Which IC50 does the source give for `Nc1nc(Nc2ccc(CN3CCC(N4CCCC4)CC3)cc2)nn1-c1cc2c(nn1)-c1ccccc1CCC2` [Compound 103, 1-(6,7-dihydro-5H-benzo[6,7]cyclohepta[1,2-c]pyridazin-3-yl)-N^3-(4-((4-pyrrolidin-1-ylpiperidinyl)methyl)phenyl)-1H-1,2,4-triazole-3,5-diamine] here?
The IC50 was under 1000 nM.

For `Nc1nc(Nc2ccc(CN3CCN(C4CCCC4)CC3)cc2)nn1-c1cc2c(nn1)-c1ccccc1CCC2` [Compound 104, 1-(6,7-dihydro-5H-benzo[6,7]cyclohepta[1,2-c]pyridazin-3-yl)-N^3-(4-((4-cyclopentylpiperazinyl)-methyl)phenyl)-1H-1,2,4-triazole-3,5-diamine], which IC50 is on record?
Its IC50 is under 1000 nM.

With `Cc1cc(Nc2nc(N)n(-c3cc4c(nn3)-c3ccccc3CCC4)n2)ccc1N1CCC(N2CCCC2)CC1` [Compound 106, 1-(6,7-dihydro-5H-benzo[6,7]cyclohepta[1,2-c]pyridazin-3-yl)-N^3-(3-methyl-4-(4-pyrrolidin-1-ylpiperidinyl)phenyl)-1H-1,2,4-triazole-3,5-diamine] as the compound, how does the IC50 read?
Its IC50 is under 1000 nM.

Which IC50 does the source give for `Nc1nc(Nc2ccc(N3CCN(C4CCCC4)CC3)c(F)c2)nn1-c1cc2c(nn1)-c1ccccc1CCC2` [Compound 107, 1-(6,7-dihydro-5H-benzo[6,7]cyclohepta[1,2-c]pyridazin-3-yl)-N^3-(3-fluoro-4-(4-cyclopentylpiperazinyl)-phenyl)-1H-1,2,4-triazole-3,5-diamine] here?
The IC50 was under 1000 nM.

`CC(C)N1CCN(Cc2ccc(Nc3nc(N)n(-c4cc5c(nn4)-c4ccccc4CCC5)n3)cc2)CC1` [Compound 108, 1-(6,7-dihydro-5H-benzo[6,7]cyclohepta[1,2-c]pyridazin-3-yl)-N^3-(4-((4-isopropylpiperazinyl)methyl)-phenyl)-1H-1,2,4-triazole-3,5-diamine] was tested. Which IC50 did it give?
Its IC50 is under 1000 nM.

Which IC50 does the source give for `CN1CCC(N2CCN(c3ccc(Nc4nc(N)n(-c5cc6c(nn5)-c5ccccc5CCC6)n4)cc3F)CC2)CC1` [Compound 109, 1-(6,7-dihydro-5H-benzo[6,7]cyclohepta[1,2-c]pyridazin-3-yl)-N^3-(3-fluoro-4-(4-N-methylpiperidin-4-ylpiperazinyl)phenyl)-1H-1,2,4-triazole-3,5-diamine] here?
The IC50 was under 1000 nM.

For `CN1CCC2(CCN(c3ccc(Nc4nc(N)n(-c5cc6c(nn5)-c5ccccc5CCC6)n4)cc3F)C2)C1` (stereo not drawn) [Compound 110, 1-(6,7-dihydro-5H-benzo[6,7]cyclohepta[1,2-c]pyridazin-3-yl)-N^3-(3-fluoro-4-(7-methyl-2,7-diazaspiro[4.4]nonan-2-yl)phenyl)-1H-1,2,4-triazole-3,5-diamine], which IC50 is on record?
The IC50 was under 1000 nM.

Which IC50 does the source give for `CC(C)N1CCN(c2ccc(Nc3nc(N)n(-c4cc5c(nn4)-c4ccccc4CCC5)n3)cc2F)CC1` [Compound 111, 1-(6,7-dihydro-5H-benzo[6,7]cyclohepta[1,2-c]pyridazin-3-yl)-N^3-(3-fluoro-4-(N-isopropylpiperazin-1-yl)phenyl)-1H-1,2,4-triazole-3,5-diamine] here?
Its IC50 is under 1000 nM.

`Nc1nc(Nc2ccc(N3CC(N4CCCC4)C3)c(F)c2)nn1-c1cc2c(nn1)-c1ccccc1CCC2` [Compound 113, 1-(6,7-dihydro-5H-benzo[6,7]cyclohepta[1,2-c]pyridazin-3-yl)-N^3-(3-fluoro-4-(3-pyrrolidin-1-ylazetidinyl)phenyl)-1H-1,2,4-triazole-3,5-diamine] was tested. Which IC50 did it give?
Its IC50 is under 1000 nM.
